Format in all cases: biochemical
In one test the target is PI3kγ (Homo sapiens, UniProt P48736). Briefly: Fluorescent (HTRF) determination of PI3 kinase enzyme activity, PI3Kγ. Conditions: for inhibition at 0.1 µM / % inhibition (PI3kγ) 100 nM: 100 nM (Examples 60-137); for inhibition at 0.3 µM: 300 nM (Examples 1-59). The text has this: (§1) Assay 1: Fluorescent Determination of PI3Kinase Kinase Enzyme Activity
(§2) Phosphoinositide 3 kinases (PI3K) belong to a class of lipid kinases that play a critical role in the regulation of several key cellular processes. The PI3K are capable of phosphorylating the 3-hydroxy position of phosphoinositols thereby generating second messengers involved in downstream signalling events. The homogenous time resolved fluorescence (HTRF) assay allows detection of 3,4,5-triphosphate (PIP3) formed as a result of phosphorylation of phosphotidylinositol 4,5-biphosphate (PIP2) by PI3K isoforms such as α, β, γ or δ. PI3K isoform activity for a, p, y or 8 was determined using a PI3K human HTRF™ Assay Kit (Millipore, Billerica, Mass.) with modifications. All incubations were carried out at room temperature. Briefly, 0.5 μl of 40× inhibitor (in 100% DMSO) or 100% DMSO were added to each well of a 384-well black plate (Greiner Bio-One, Monroe, N.C.) containing 14.5 μl IX reaction buffer /PIP2 (10 mM MgCl2, 5 mM DTT, 1.38 μM PIP2) mix with or without enzyme and incubated for 10 min. After the initial incubation, 5 μl/well of 400 μM ATP was added and incubated for an additional 30 minutes. Reaction was terminated by adding 5 μl/well stop solution (Millipore, Billerica, Mass.). Five microliters of detection mix (Millipore, Billerica, Mass.) were then added to each well and was incubated for 6-18 h in the dark. HRTF ratio was measured on a microplate reader (BMG Labtech., Germany) at an excitation wavelength of 337 nm and emission wavelengths of 665 and 620 nm with an integration time of 400 μsec.
(§3) Data were analyzed using Graphpad Prism (Graphpad software; San Diego Calif.) for IC50 determination. Examples 1-59 were tested at 1 uM for Pi3kα & Pi3k β and at 0.3 uM for γ and δ. Examples 60-137 were tested at 1 uM for Pi3kα & Pi3k β and at 0.1 uM for γ and δ. Percent inhibition was calculated based on the values for the blank and enzyme controls. The results are as provided in Table 2 (wherein D=0 to 25%; C=>25 to 50%; B=>50 to 75%; A=>75 to 100%; +++++=≤50 nM; ++++=>50 to ≤100 nM; +++=>100 to ≤300 nM; ++=>300 to ≤500 nM; +=>500 nM)
Background: TR-FRET usually uses a lanthanide donor and a delayed reading to cut background.

In another test the target is PI3kδ (Homo sapiens, UniProt O00329). Put plainly: Fluorescent (HTRF) determination of PI3 kinase enzyme activity, PI3Kδ. As to conditions: for inhibition at 0.1 µM / % inhibition (PI3kδ) 100 nM: 100 nM (Examples 60-137); for % inhibition (PI3kδ) 100 nM: 0.1 µM; for inhibition at 0.3 µM: 300 nM (Examples 1-59).
Sequence of PI3kδ (O00329 whole entry): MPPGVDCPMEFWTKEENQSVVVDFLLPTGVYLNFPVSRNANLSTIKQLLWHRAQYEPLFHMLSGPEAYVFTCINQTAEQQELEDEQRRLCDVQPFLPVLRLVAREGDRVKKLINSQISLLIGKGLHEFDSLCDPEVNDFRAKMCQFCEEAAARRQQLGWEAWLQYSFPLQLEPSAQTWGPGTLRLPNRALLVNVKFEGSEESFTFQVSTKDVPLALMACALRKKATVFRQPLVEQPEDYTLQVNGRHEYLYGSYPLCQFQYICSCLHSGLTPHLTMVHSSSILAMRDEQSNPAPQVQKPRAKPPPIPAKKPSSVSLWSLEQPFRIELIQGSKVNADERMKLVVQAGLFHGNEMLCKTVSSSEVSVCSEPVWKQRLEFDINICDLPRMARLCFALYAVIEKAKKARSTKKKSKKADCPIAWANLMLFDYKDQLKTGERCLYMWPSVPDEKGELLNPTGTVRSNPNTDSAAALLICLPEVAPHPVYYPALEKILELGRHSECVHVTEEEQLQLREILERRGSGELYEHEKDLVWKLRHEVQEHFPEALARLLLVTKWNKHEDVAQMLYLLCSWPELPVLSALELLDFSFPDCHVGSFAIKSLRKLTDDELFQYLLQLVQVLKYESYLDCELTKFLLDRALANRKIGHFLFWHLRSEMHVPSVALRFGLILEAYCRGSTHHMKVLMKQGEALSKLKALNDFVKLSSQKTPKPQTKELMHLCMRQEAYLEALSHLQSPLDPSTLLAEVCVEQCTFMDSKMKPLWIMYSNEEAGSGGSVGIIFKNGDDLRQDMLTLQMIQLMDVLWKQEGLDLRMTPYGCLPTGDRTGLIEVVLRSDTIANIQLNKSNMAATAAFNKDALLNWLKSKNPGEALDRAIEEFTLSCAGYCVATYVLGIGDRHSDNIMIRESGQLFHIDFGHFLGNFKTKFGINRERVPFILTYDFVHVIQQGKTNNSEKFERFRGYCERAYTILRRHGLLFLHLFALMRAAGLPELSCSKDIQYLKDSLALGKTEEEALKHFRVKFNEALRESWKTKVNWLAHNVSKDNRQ
Sequence of PI3kδ (P27986 whole entry partner): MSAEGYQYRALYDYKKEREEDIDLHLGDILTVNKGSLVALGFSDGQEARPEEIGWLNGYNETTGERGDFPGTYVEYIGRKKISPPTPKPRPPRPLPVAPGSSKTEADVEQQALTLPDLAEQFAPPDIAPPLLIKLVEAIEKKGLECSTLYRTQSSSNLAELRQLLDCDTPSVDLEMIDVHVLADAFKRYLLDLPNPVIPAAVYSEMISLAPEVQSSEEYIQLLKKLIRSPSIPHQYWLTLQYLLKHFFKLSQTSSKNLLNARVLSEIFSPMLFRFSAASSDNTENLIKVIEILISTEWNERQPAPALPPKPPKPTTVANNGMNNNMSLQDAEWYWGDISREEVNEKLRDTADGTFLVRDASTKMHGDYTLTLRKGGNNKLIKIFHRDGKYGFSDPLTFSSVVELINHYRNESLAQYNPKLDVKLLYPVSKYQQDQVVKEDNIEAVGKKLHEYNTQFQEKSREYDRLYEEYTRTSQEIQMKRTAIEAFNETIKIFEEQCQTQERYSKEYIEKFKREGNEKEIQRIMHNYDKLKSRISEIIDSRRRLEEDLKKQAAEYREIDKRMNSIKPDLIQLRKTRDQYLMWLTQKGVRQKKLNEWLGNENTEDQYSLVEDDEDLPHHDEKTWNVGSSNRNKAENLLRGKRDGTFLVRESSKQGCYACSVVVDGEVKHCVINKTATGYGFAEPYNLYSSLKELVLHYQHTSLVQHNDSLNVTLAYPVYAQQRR
Text: as §1, §2, §3

Another test deals with PI3kα (Homo sapiens, UniProt P42336). Briefly: Fluorescent (HTRF) determination of PI3 kinase enzyme activity, PI3Kα. Conditions: 1 uM.
Sequence of PI3kα (P42336 whole entry): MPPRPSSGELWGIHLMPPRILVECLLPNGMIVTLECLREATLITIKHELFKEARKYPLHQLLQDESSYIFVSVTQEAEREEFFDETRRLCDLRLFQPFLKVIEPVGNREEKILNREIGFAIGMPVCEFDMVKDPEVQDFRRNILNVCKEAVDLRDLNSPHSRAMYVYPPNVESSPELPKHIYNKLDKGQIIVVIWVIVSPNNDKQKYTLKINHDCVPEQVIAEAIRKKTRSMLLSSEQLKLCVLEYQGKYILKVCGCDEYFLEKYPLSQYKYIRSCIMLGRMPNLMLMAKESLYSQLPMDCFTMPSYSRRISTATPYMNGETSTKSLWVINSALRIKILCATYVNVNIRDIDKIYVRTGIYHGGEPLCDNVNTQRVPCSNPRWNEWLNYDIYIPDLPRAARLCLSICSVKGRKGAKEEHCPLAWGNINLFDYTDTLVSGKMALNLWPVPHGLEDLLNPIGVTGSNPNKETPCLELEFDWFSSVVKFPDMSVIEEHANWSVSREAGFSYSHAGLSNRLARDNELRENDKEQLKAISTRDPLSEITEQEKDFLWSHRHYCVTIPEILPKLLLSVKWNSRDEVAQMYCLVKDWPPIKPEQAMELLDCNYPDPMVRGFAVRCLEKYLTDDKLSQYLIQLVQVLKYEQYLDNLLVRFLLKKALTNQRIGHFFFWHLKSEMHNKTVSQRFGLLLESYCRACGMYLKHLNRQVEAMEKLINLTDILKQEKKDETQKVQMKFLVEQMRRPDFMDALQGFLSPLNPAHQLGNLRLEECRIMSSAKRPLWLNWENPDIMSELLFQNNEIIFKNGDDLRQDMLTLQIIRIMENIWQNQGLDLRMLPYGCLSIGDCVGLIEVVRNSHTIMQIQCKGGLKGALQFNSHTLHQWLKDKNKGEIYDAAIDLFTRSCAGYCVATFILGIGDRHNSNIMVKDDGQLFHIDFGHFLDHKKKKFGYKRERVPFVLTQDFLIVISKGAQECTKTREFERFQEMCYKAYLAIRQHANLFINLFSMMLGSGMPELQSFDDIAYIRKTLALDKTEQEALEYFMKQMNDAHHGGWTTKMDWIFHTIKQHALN
Sequence of PI3kα (P27986 whole entry partner): as the sequence (P27986 whole entry partner) above
Text: as §1, §2, §3

In a further test the target is PI3kβ (Homo sapiens, UniProt P42338). Put plainly: Fluorescent (HTRF) determination of PI3 kinase enzyme activity, PI3Kβ. As to conditions: 1 uM.
Sequence of PI3kβ (P42338 whole entry): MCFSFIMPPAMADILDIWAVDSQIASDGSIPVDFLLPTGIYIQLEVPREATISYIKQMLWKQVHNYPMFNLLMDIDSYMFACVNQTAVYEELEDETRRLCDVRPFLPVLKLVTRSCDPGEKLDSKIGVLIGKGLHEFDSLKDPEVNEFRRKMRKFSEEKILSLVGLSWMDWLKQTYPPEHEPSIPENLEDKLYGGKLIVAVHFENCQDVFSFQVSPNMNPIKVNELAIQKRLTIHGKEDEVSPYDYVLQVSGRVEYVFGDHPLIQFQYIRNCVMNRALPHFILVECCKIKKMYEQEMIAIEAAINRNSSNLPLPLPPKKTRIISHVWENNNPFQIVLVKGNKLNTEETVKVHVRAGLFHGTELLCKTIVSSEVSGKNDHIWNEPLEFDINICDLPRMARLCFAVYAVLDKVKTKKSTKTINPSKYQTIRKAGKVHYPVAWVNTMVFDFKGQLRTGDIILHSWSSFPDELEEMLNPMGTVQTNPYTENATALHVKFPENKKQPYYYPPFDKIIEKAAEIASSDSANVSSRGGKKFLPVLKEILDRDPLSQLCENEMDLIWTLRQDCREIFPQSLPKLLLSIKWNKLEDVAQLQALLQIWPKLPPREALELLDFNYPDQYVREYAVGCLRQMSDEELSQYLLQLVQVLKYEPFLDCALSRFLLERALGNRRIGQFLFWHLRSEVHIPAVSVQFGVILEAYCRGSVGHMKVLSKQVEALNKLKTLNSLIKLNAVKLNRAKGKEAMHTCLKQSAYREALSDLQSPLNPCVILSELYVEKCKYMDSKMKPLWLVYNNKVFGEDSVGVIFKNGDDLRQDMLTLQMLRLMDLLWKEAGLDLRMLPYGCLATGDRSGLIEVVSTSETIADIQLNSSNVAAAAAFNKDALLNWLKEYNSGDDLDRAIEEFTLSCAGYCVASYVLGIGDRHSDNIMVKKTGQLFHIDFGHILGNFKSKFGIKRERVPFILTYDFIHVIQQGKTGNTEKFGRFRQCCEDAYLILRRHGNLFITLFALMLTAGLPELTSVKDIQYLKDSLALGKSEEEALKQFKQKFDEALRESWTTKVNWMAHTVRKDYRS
Sequence of PI3kβ (P27986 whole entry partner): as the sequence (P27986 whole entry partner) above
Text: as §1, §2, §3

Sequence of PI3kγ (P48736 whole entry, canonical isoform): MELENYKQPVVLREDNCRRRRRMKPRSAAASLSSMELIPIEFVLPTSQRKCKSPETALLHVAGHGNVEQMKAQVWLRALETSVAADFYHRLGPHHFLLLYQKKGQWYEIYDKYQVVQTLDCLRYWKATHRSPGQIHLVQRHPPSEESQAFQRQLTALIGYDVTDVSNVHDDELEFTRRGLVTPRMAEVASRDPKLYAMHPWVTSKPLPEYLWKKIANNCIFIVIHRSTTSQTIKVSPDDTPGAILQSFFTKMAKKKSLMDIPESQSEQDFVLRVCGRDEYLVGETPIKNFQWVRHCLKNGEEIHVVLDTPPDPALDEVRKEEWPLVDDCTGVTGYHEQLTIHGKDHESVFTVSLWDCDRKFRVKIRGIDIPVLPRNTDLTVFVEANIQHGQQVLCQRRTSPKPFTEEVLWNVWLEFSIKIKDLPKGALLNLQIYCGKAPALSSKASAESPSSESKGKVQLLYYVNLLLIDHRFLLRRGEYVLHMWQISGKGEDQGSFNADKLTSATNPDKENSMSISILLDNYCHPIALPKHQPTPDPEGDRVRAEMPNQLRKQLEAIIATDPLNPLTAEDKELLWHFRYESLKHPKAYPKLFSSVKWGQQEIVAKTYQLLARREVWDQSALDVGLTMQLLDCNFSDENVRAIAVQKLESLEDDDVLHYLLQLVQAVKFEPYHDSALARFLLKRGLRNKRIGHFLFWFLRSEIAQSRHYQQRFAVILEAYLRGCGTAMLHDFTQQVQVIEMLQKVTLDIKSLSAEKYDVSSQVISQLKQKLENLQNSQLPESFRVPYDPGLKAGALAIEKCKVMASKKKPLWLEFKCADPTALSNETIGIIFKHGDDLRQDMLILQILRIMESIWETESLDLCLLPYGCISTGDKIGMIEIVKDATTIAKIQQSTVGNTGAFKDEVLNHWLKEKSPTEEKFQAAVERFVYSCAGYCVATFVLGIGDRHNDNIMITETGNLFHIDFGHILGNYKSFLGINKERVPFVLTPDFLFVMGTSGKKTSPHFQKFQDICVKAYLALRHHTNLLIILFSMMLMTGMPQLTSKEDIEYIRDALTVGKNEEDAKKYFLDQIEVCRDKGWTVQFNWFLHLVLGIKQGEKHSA

In general, inhibition refers to the relative decrease from the control value, in per cent. A high value points to strong suppression. Consider `CC(c1oc2cccc(F)c2c(=O)c1-c1ccc(F)cc1)n1nc(-c2ccc(OC(F)F)c(F)c2)c2c(N)ncnc21` (racemic) [Example 96, (S)/(R)-2-(1-(4-amino-3-(4-(difluoromethoxy)-3-fluorophenyl)-1H-pyrazolo[3,4-d]pyrimidin-1-yl)ethyl)-5-fluoro-3-(4-fluorophenyl)-4H-chromen-4-one], for which the inhibition at 0.1 µM on PI3kγ and at PI3kδ was 0 to 25% each time.
In the case of `CC(C)Oc1ccc(-c2nn(C(C)c3oc4cccc(F)c4c(=O)c3-c3ccc(F)cc3)c3ncnc(N)c23)cc1F` (single isomer, unassigned) [Example 95], the inhibition at 0.1 µM was 0 to 25% against PI3kγ and 25 to 50% against PI3kδ.
Regarding `CC(c1oc2cccc(F)c2c(=O)c1-c1ccccc1)n1nc(-c2ccc(OC(F)F)c(F)c2)c2c(N)ncnc21` (single isomer, unassigned) [Example 103], the inhibition at 0.1 µM on PI3kγ is 25 to 50%; on PI3kδ, 0 to 25%.
At PI3kγ, `CNc1ncnc2c1c(-c1ccc(OC(C)C)c(F)c1)nn2C(C)c1oc2cccc(F)c2c(=O)c1-c1cccc(F)c1` (single isomer, unassigned; (+)) [Example 104, (+)-5-fluoro-2-(1-(3-(3-fluoro-4-isopropoxyphenyl)-4-(methylamino)-1H-pyrazolo[3,4-d]pyrimidin-1-yl)ethyl)-3-(3-fluorophenyl)-4H-chromen-4-one] showed an inhibition at 0.1 µM of 25 to 50%. Besides, at PI3kδ, the “% inhibition (PI3kδ) 100 nM” value is given as “D (D=0 to 25%)”.
Turning to `Cc1cc(-c2nn(C(C)c3oc4cccc(F)c4c(=O)c3-c3cccc(F)c3)c3ncnc(N)c23)ccc1OC(C)C` (single isomer, unassigned; (+)) [Example 114, (+) 2-(1-(4-amino-3-(4-isopropoxy-3-methylphenyl)-1H-pyrazolo[3,4-d]pyrimidin-1-yl)ethyl)-5-fluoro-3-(3-fluorophenyl)-4H-chromen-4-one], the “% inhibition (PI3kα) 1 uM” value on PI3kα is on record as “D (D=0 to 25%)”. Besides, the “% inhibition (PI3kγ) 100 nM” value on PI3kγ (0.1 µM) is recorded as “B (B=>50 to 75%)”. In addition, the “% inhibition (PI3kδ) 100 nM” value on PI3kδ is reported as “B (B=>50 to 75%)”.
As to `CNc1ncnc2c1c(-c1ccc(OC(C)C)c(F)c1)nn2C(C)c1oc2cccc(F)c2c(=O)c1-c1cccc(F)c1` (single isomer, unassigned; (-)) [Example 105, (−)-5-fluoro-2-(1-(3-(3-fluoro-4-isopropoxyphenyl)-4-(methylamino)-1H-pyrazolo[3,4-d]pyrimidin-1-yl)ethyl)-3-(3-fluorophenyl)-4H-chromen-4-one], the “% inhibition (PI3kγ) 100 nM” value at PI3kγ was “C (C=>25 to 50%)”. Besides, the “% inhibition (PI3kδ) 100 nM” value on PI3kδ is recorded as “D (D=0 to 25%)”.
As to `CC(Nc1ncnc2[nH]cnc12)c1oc2cccc(F)c2c(=O)c1-c1cccc(F)c1` (stereo not shown) [Example 15, 2-(1-(9H-purin-6-ylamino)ethyl)-5-fluoro-3-(3-fluorophenyl)-4H-chromen-4-one], the inhibition at 0.3 µM against PI3kγ and at PI3kδ was 0 to 25% each time.
On to `CC(c1oc2cccc(F)c2c(=O)c1-c1cccc(F)c1)n1nc(-c2ccc(OC3CCNCC3)c(F)c2)c2c(N)ncnc21` (stereo not shown) [Example 21, 2-(1-(4-amino-3-(3-fluoro-4-(piperidin-4-yloxy)phenyl)-1H-pyrazolo[3,4-d]pyrimidin-1-yl)ethyl)-5-fluoro-3-(3-fluorophenyl)-4H-chromen-4-one], for which the results for the inhibition at 0.3 µM against PI3kγ and against PI3kδ were 0 to 25% and 25 to 50%, respectively.
Regarding `CC(C)c1nn(C(C)c2oc3cccc(F)c3c(=O)c2-c2cccc(F)c2)c2ncnc(N)c12` (stereo not shown) [Example 35, 2-(1-(4-amino-3-isopropyl-1H-pyrazolo[3,4-d]pyrimidin-1-yl)ethyl)-5-fluoro-3-(3-fluorophenyl)-4H-chromen-4-one], the inhibition at 0.3 µM on PI3kγ is 25 to 50%; on PI3kδ, 0 to 25%.
With `CC(c1oc2cccc(F)c2c(=O)c1-c1ccccc1)n1nc(-c2ccc(N3CCOCC3)c(F)c2)c2c(N)ncnc21` (stereo not shown) [Example 92, 2-(1-(4-amino-3-(3-fluoro-4-morpholinophenyl)-1H-pyrazolo[3,4-d]pyrimidin-1-yl)ethyl)-5-fluoro-3-phenyl-4H-chromen-4-one], the inhibition at 0.1 µM against PI3kγ and against PI3kδ was 0 to 25% each time.
`CC(c1oc2cccc(F)c2c(=O)c1-c1ccc(F)cc1)n1nc(-c2ccc(N3CCOCC3)c(F)c2)c2c(N)ncnc21` (stereo not shown) [Example 93, 2-(1-(4-amino-3-(3-fluoro-4-morpholinophenyl)-1H-pyrazolo[3,4-d]pyrimidin-1-yl)ethyl)-5-fluoro-3-(4-fluorophenyl)-4H-chromen-4-one]: the inhibition at 0.1 µM on PI3kγ lay within 0 to 25%; against PI3kδ it was 25 to 50%.
As to `CNc1ncnc2c1c(-c1ccc(N3CCOCC3)c(F)c1)nn2C(C)c1oc2cccc(F)c2c(=O)c1-c1cccc(F)c1` (stereo not shown) [Example 99, 5-fluoro-2-(1-(3-(3-fluoro-4-morpholinophenyl)-4-(methylamino)-1H-pyrazolo[3,4-d]pyrimidin-1-yl)ethyl)-3-(3-fluorophenyl)-4H-chromen-4-one], the inhibition at 0.1 µM at PI3kγ and on PI3kδ was 25 to 50% throughout.
As to `CC(c1oc2cccc(F)c2c(=O)c1-c1cccc(F)c1)n1cnc2c(N)nc(F)nc21` (stereo not shown) [Example 106, 2-(1-(6-amino-2-fluoro-9H-purin-9-yl)ethyl)-5-fluoro-3-(3-fluorophenyl)-4H-chromen-4-one], the inhibition at 0.1 µM against PI3kγ lay in the range of 25 to 50%; against PI3kδ, 0 to 25%.
Take `CC(c1oc2cccc(F)c2c(=O)c1-c1ccc(F)cc1)n1cnc2c(N3CCN(C)CC3)ncnc21` (stereo not shown) [Example 109, 5-fluoro-3-(4-fluorophenyl)-2-(1-(6-(4-methylpiperazin-1-yl)-9H-purin-9-yl)ethyl)-4H-chromen-4-one]: the values for the inhibition at 0.1 µM at PI3kγ and against PI3kδ were 0 to 25% and 25 to 50%, respectively.
Take `CNc1ncnc2c1ncn2C(C)c1oc2cccc(F)c2c(=O)c1-c1cccc(F)c1` (stereo not shown) [Example 111, 5-fluoro-3-(3-fluorophenyl)-2-(1-(6-(methylamino)-9H-purin-9-yl)ethyl)-4H-chromen-4-one]: the inhibition at 1 µM against PI3kβ was in the range of 0 to 25%. For the same compound, the inhibition at 0.1 µM against PI3kγ and at PI3kδ was 25 to 50% each time.
For the compound `CC(C)Oc1ccc(-c2nn(C(C)c3oc4cccc(F)c4c(=O)c3-c3cccc(F)c3)c3ncnc(N)c23)cc1Cl` (stereo not shown) [Example 117, 2-(1-(4-amino-3-(3-chloro-4-isopropoxyphenyl)-1H-pyrazolo[3,4-d]pyrimidin-1-yl)ethyl)-5-fluoro-3-(3-fluorophenyl)-4H-chromen-4-one], the inhibition at 1 µM against PI3kα was in the range of 50 to 75%. Besides, the inhibition at 0.1 µM against PI3kγ and on PI3kδ was 25 to 50% each time.
Consider `CC(c1oc2cccc(F)c2c(=O)c1-c1cccc(F)c1)n1cnc2c(N3CCOCC3)ncnc21` (stereo not shown) [Example 119, 5-fluoro-3-(3-fluorophenyl)-2-(1-(6-morpholino-9H-purin-9-yl)ethyl)-4H-chromen-4-one], for which the inhibition at 0.1 µM at PI3kγ was in the range of 25 to 50%; against PI3kδ, 0 to 25%.
As for `CCC(c1oc2cccc(F)c2c(=O)c1-c1cccc(F)c1)n1nc(-c2ccc(OC(C)C)c(F)c2)c2c(N)ncnc21` (stereo not shown) [Example 133, 2-(1-(4-amino-3-(3-fluoro-4-isopropoxyphenyl)-1H-pyrazolo[3,4-d]pyrimidin-1-yl)propyl)-5-fluoro-3-(3-fluorophenyl)-4H-chromen-4-one], the inhibition at 1 µM against PI3kβ was 50 to 75%. Further, the inhibition at 0.1 µM at PI3kγ was 50 to 75%; against PI3kδ it was 25 to 50%.

The values are drawn from patent US11020399B2, “Intermediates useful in the synthesis of compounds as modulators of protein kinases” (Rhizen Pharmaceuticals SA, priority 2011, dated 2021).
